Results from patent EP2924040A1, “2-Amino-1-(o-tolyl)pyrrolo[3,2-b]quinoxaline-3-carboxamide derivates” (Universität Zürich, priority 2014, dated 2015).

Key:
A498 = test: Cell culture and GI50 determination (resazurin); type: cell-based; details: Homo sapiens, A498, 48h incubation
Description: (§1) MDA-MB-231 (breast cancer) and KM12 (colon cancer) cells obtained from the UZH Cancer Institute, HOP-92 (lung cancer) cells purchased from the National Cancer Institute (NCl) and A498 (kidney cancer) cells obtained from Prof. Krek (Institute of Cell Biology, ETH Zurich) were cultured in Dulbecco's modified Eagle's medium (DMEM) supplemented with 10% (v/v) fetal bovine serum. K562 leukemia cells obtained from Dr. Silvio Hemmi (Institute of Molecular Life Sciences, UZH) were cultured using RPMI medium supplemented with 5% (v/v) fetal bovine serum. All the media was additionally supplemented with 100 units/mL of penicillin, 100µg/mL of streptomycin, 4.5 g/L glucose, 0.11g/L sodium pyrubate and 2mM glutamine and the cells were grown at 37 °C in 5% CO2 atmosphere with 80% relative humidity.
(§2) MDA-MB-231, HT-29, KM12, HOP-92 and A498 cells were plated at 10,000 cells per well (100 µL per well) in 96-well culture dishes and allowed to incubate for 24 h. The old media was removed, the cells were washed with PBS (phosphate-buffered saline) and fresh media was added. A 5 mmol/L solution of inhibitor (in 100% DMSO) was serially diluted in the culture media (12 different concentrations were used) and allowed to incubate for 72 h (MDA-MB-231) or 48h (A498). Control cells were treated with the same DMSO concentrations. After the incubation period the media was once more removed and the cells were washed with PBS to then be incubated with fresh media containing 86 nmol/L resazurin. After 3 hours, the fluorescence was quantified using a fluorescence microplate reader (Biotek, FLx800™) at the respective excitation and emission wavelength of 560 and 590 nm. Resazurin becomes fluorescent under mitochondrial reduction and its emission directly correlates with the metabolic stability of the cells. The measured fluorescence values were corrected from the control samples containing DMSO and GI50 values were determined by plotting the fraction of metabolically active cells against the log of the drug concentration. All measurements were performed at least in triplicate.

HOP-92 = test: Cell culture and GI50 determination (resazurin); type: cell-based; details: Homo sapiens; HOP-92, resazurin
Description: as §1, §2

KM12 = test: Cell culture and GI50 determination (resazurin); type: cell-based; details: Homo sapiens
Description: as §1, §2

MDA-MB-231 = test: Cell culture and GI50 determination (resazurin); type: cell-based; details: Homo sapiens, MDA-MB-231, 72 h incubation
Description: as §1, §2

[1] = In vivo pharmacokinetics in blood plasma; details: male CD-1 mice
Description: Evaluation of the in vivo pharmacokinetics of a subset of compounds was performed through analysis of compound concentration in the blood plasma of male CD-1 (ICD) mice (each weighing 20-30 g) over a 24 hour period (at time points of 3, 10, 30, 60, 120, 240, 360 and 1440 minutes) following a single oral (PO) and intravenous (IV, in tail vein) administration of a compound dose corresponding to 5 mg of compound/kg of mouse body weight (PO) and 1 mg of compound/kg of mouse body weight (IV). For IV dosing, each compound was formulated as a clear solution in DMSO/Solutol® HS 15/phosphate-buffered saline, pH 7.4 (PBS) (5/5/90, v/v/v). For PO dosing, compounds were formulated as a homogeneous suspension in DMSO/1% methylcellulose (5/95, v/v).
At the relevant time point, blood samples (300-400 µL) were collected from the mice under general inhalant anaesthesia by cardiac puncture and stored on ice in 0.6 mL polypropylene heparin-lithium-coated tubes. Within 1 hour of collection, each tube was centrifuged at 2500 G for 15 minutes at 4°C and harvested plasma stored at -20°C.
Compound concentration in plasma at each time point was determined following acetonitrile precipitation of each sample followed by HPLC-MS analysis performed in triplicates, i.e., based on the mean of the compound concentration at that time point in blood samples of three mice.
Table 3: In vivo pharmacokinetics (min: minutes)

Cc1ccc(O)cc1-n1c(N)c(C(N)=O)c2nc3ccccc3nc21 [Compound 2, 2-Amino-1-(5-hydroxy-2-methylphenyl)-1H-pyrrolo[2,3-b]quinoxaline-3-carboxamide]
GI50 (A498): 5880 nM
GI50 (HOP-92): 490 nM
GI50 (KM12): 1550 nM
GI50 (MDA-MB-231): 2640 nM
T1/2 (min, IV) ([1]; IV 1 mg/kg, plasma): 1.68 h
Bioavailibility (%) ([1]; [AUClast(PO)*Dose(IV)] / [AUClast(IV)*Dose(PO)]): 25%
Cmax ([1]; mouse, PO 5 mg/kg, plasma): 240 ng/mL
half-life ([1]; mouse, PO 5 mg/kg, plasma, read-out: T1/2 (min, PO)): 1.67 h
Tmax ([1]; mouse, PO 5 mg/kg, plasma, read-out: Tmax (min, PO) (converted)): 0.5 h
